This is an account of results in US11806350B2, “Prevention and/or treatment of CNS disorders” (ILDONG PHARMACEUTICAL CO., LTD., priority 2020, dated 2023).

Assay [1] concerns the target T1, Human recombinant adenosine A2A receptors (Homo sapiens, UniProt P29274).
T1 construct: expressed in transfected cells; host or cells: HEK-293 cells (membrane preparation)
Description: Human adenosine A2A receptor binding assay ([3H]CGS-21680). To be noted: for Ki: membranes of HEK-293 cells, 50 nM [3H]CGS-21680, 90 minutes at 25° C., read-out: hA2A Ki; for activity as dual antagonists of both A2A and A1 receptors: summary in words of the A2A and A1 binding results of Table 2. As to the method:
2.2 Human Adenosine A2A Receptor Binding Assay
Test compound is weighed, dissolved in DMSO to make a stock solution of 10 mM, diluted with DMSO to prepare working solutions, then 100-fold diluted to the indicated concentrations. Human recombinant adenosine A2A receptors expressed in HEK-293 cells were used to prepare membranes in incubation buffer (50 mM Tris-HCl, pH 7.4, 10 mM MgCl2, 1 mM EDTA, 2 U/ml Adenosine Deaminase). Test compound or vehicle (2.2 μL) was added in 200 μL of membranes and incubated with 20 μL of 50 nM [^3H] […] Non-specific binding was estimated in the presence of 50 μM NECA (5′-N-ethylcarboxamidoadenosine). The incubation was stopped by vacuum filtration onto 0.3% PEI (polyethylenimine) presoaked GF/B filters using a harvester followed by four washes with ice-cold 50 mM Tris-HCl, pH 7.4, and the radioactivity on GF/B filtermats counted in a scintillation counter (PerkinElmer TOPCOUNT™) to determine [^3H] […] Final concentration of vehicle DMSO is 1%.
(§1) Data is fitted using the non-linear curve fitting routines in Meth-IQ software (ID Business Solutions Ltd., UK). IC50 is converted to Ki by Cheng-Prusoff equation: Ki=IC50/(1+[L]/KD) where [L] is concentration of radiolabeled ligand used in the assay.

Assay [2] concerns the target T2, Human recombinant adenosine A1 receptors (Homo sapiens, UniProt P30542).
T2 construct: expressed in transfected cells; host or cells: CHO-K1 cells (membrane preparation)
T2 sequence (P30542 1-326): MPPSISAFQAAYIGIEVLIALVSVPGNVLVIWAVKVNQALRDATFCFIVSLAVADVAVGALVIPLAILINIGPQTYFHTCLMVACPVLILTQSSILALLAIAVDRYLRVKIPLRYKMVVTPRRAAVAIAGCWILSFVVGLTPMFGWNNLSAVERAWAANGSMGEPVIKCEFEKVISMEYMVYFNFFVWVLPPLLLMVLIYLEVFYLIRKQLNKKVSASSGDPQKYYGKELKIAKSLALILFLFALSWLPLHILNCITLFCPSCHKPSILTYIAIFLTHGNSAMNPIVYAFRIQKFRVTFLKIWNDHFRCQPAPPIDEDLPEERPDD
The experiment in a line: Human adenosine A1 receptor binding assay ([3H]DPCPX). To be noted: membranes of CHO-K1 cells, 1 nM [3H]DPCPX, 90 minutes at 25° C.; read-out: hAl Ki. As to the method: 2.1 Human Adenosine A1 Receptor Binding Assay
Test compound is weighed, dissolved in DMSO to make a stock solution of 10 mM, diluted with DMSO to prepare working solutions, then 100-fold diluted to the indicated concentrations. Human recombinant adenosine A1 receptors expressed in CHO-K1 cells were used to prepare membranes in incubation buffer (20 mM HEPES (4-(2-hydroxyethyl)-1-piperazineethanesulfonic acid) pH 7.4, 10 mM MgCl2, 100 mM NaCl). Test compound or vehicle (2.2 μL) was added in 200 μL of membranes and incubated with 20 μL of 1 nM [^3H] DPCPX (8-cyclopentyl-1,3-dipropylxanthine) for 90 minutes at 25° C. Non-specific binding was estimated in the presence of 100 μM R(−)-PIA ((R)—N-(1-methyl-2-phenylethyl)adenosine). The incubation was stopped by vacuum filtration onto 0.3% PEI (polyethylenimine) presoaked GF/B filters using a harvester followed by four washes with ice-cold 50 mM Tris-HCl, pH 7.4, and the radioactivity on GF/B filtermats counted in a scintillation counter (PerkinElmer Topcount™) to determine [^3H] DPCPX specifically bound. Final concentration of vehicle DMSO is 1%.
as §1

T1 sequence (P29274 whole entry): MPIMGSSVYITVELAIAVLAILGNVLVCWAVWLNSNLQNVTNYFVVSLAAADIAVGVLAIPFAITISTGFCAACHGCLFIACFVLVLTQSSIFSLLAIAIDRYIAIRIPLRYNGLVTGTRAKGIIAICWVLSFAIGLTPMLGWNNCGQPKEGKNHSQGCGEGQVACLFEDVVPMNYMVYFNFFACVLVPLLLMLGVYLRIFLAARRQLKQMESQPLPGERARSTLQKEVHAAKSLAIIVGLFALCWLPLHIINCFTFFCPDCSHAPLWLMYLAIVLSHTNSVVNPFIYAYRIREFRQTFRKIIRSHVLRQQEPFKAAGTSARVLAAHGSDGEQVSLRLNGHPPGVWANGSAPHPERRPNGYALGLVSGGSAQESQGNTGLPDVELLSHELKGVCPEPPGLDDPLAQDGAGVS

With `N#Cc1ccnc(-c2nc(N)nc3c2cnn3Cc2c(F)cc(N)cc2F)c1` [Compound 224, 2-[6-amino-1-[(4-amino-2,6-difluoro-phenyl)methyl]pyrazolo[3,4-d]pyrimidine-4-yl]pyridine-4-carbonitrile], the Ki (as a rule, the equilibrium dissociation constant of an inhibitor or competing ligand from its target) in assay [1] lay within 20 to 200 nM; in assay [2], 100 to 1000 nM.

For the compound `N#Cc1cncc(-c2nc(N)nc3c2cnn3Cc2c(F)cc(N)cc2F)c1` [Compound 225, 5-[6-amino-1-[(4-amino-2,6-difluoro-phenyl)methyl]pyrazolo[3,4-d]pyrimidine-4-yl]pyridine-3-carbonitrile], the Ki is 1000 to 5000 nM in assay [1] and 1000 to 10000 nM in assay [2].

Take `Cc1cc(Cn2ncc3c(-c4ccnc(C#N)c4)nc(N)nc32)ccc1N` [Compound 230, 4-(6-amino-1-(4-amino-3-methylbenzyl)-1H-pyrazolo[3,4-d]pyrimidine-4-yl)picolinonitrile]: the inhibitory constant (Ki) in assay [1] is 1000 to 5000 nM; in assay [2], over 10000 nM.

With `N#Cc1cccc(-c2nc(N)nc3c2cnn3Cc2c(F)cccc2F)c1F` [Compound 213, 3-(6-amino-1-(2,6-difluorobenzyl)-1H-pyrazolo[3,4-d]pyrimidine-4-yl)-2-fluorobenzonitrile], in assay [1], the Ki is under 20 nM; the “activity as dual antagonists of both A2A and A1 receptors” value (from here on “activity as dual antagonists”) is “potent activity as dual antagonists”. Further, the inhibition constant Ki in assay [2] was at most 100 nM.

With `N#Cc1ccnc(-c2nc(N)nc3c2cnn3Cc2ccc(N)c(C(F)(F)F)c2)c1` [Compound 235, 2-[6-amino-1-[[4-amino-3-(trifluoromethyl)phenyl]methyl]pyrazolo[3,4-d]pyrimidine-4-yl]pyridine-4-carbonitrile], the inhibition constant Ki in assay [1] is under 20 nM; in assay [2] it was 100 to 1000 nM.

Take `N#Cc1cccc(-c2nc(N)nc3c2cnn3Cc2ccc(N)cc2F)n1` [Compound 219, 6-[6-amino-1-[(4-amino-2-fluoro-phenyl)methyl]pyrazolo[3,4-d]pyrimidine-4-yl]pyridine-2-carbonitrile]: the inhibition constant (Ki) in assay [1] is under 20 nM; in assay [2], 100 to 1000 nM.

Consider `N#Cc1cc(-c2nc(N)nc3c2cnn3Cc2ccc(N)cc2)ccn1` [Compound 218, 4-(6-amino-1-(4-aminobenzyl)-1H-pyrazolo[3,4-d]pyrimidine-4-yl)picolinonitrile], for which the values for the Ki in assay [1] and in assay [2] were 1000 to 5000 nM and 1000 to 10000 nM, respectively.

In the case of `N#Cc1cc(-c2nc(N)nc3c2cnn3Cc2ccc(N)cc2F)ccn1` [Compound 222, 4-(6-amino-1-(4-amino-2-fluorobenzyl)-1H-pyrazolo[3,4-d]pyrimidine-4-yl)picolinonitrile], the Ki is 1000 to 5000 nM in assay [1] and over 10000 nM in assay [2].

Consider `N#Cc1cccc(-c2nc(N)nc3c2cnn3Cc2c(F)cc(N)cc2F)c1` [Compound 207, 3-(6-amino-1-(4-amino-2,6-difluorobenzyl)-1H-pyrazolo[3,4-d]pyrimidine-4-yl)benzonitrile], for which, in assay [1], the Ki was under 20 nM; the “activity as dual antagonists” value is reported as “potent activity as dual antagonists”. Besides, the Ki in assay [2] was at most 100 nM.

Regarding `N#Cc1cncc(-c2nc(N)nc3c2cnn3Cc2c(F)cccc2F)c1` [Compound 233, 5-(6-amino-1-(2,6-difluorobenzyl)-1H-pyrazolo[3,4-d]pyrimidine-4-yl)nicotinonitrile], the values for the inhibitory constant (Ki) in assay [1] and in assay [2] were 200 to 1000 nM and 1000 to 10000 nM, respectively.

As to `N#Cc1cc(-c2nc(N)nc3c2cnn3Cc2c(F)cc(N)cc2F)ccn1` [Compound 226, 4-(6-amino-1-(4-amino-2,6-difluorobenzyl)-1H-pyrazolo[3,4-d]pyrimidine-4-yl)picolinonitrile], the Ki in assay [1] was 1000 to 5000 nM; in assay [2], over 10000 nM.

For the compound `N#Cc1cccc(-c2nc(N)nc3c2cnn3Cc2ccc(N)cc2F)c1` [Compound 209, 3-(6-amino-1-(4-amino-2-fluorobenzyl)-1H-pyrazolo[3,4-d]pyrimidine-4-yl)benzonitrile], the figures for the Ki in assay [1] and in assay [2] were under 20 nM and 100 to 1000 nM, respectively.

With `N#Cc1ccnc(-c2nc(N)nc3c2cnn3Cc2ccc(N)cc2)c1` [Compound 216, 2-(6-amino-1-(4-aminobenzyl)-1H-pyrazolo[3,4-d]pyrimidine-4-yl)isonicotinonitrile], the values for the inhibitory constant (Ki) in assay [1] and in assay [2] were 200 to 1000 nM and 1000 to 10000 nM, respectively.

Regarding `N#Cc1ccnc(-c2nc(N)nc3c2cnn3Cc2ccc(N)cc2F)c1` [Compound 220, 2-(6-amino-1-(4-amino-2-fluorobenzyl)-1H-pyrazolo[3,4-d]pyrimidine-4-yl)isonicotinonitrile], the Ki lay within 20 to 200 nM in assay [1] and 100 to 1000 nM in assay [2].

Turning to `CCn1c(=O)c2c(nc(/C=C/c3ccc(OC)c(OC)c3)n2C)n(CC)c1=O` [Istradefylline, reference compound], the Ki in assay [2] is 100 to 1000 nM.

Consider `N#Cc1cc(-c2nc(N)nc3c2cnn3Cc2c(F)cccc2F)ccn1` [Compound 234, 4-[6-amino-1-[(2,6-difluorophenyl)methyl]pyrazolo[3,4-d]pyrimidine-4-yl]pyridine-2-carbonitrile], for which the results for the Ki in assay [1] and in assay [2] were 200 to 1000 nM and 1000 to 10000 nM, respectively.

In the case of `N#Cc1cncc(-c2nc(N)nc3c2cnn3Cc2ccc(N)cc2)c1` [Compound 217, 5-(6-amino-1-(4-aminobenzyl)-1H-pyrazolo[3,4-d]pyrimidine-4-yl)nicotinonitrile], the Ki was 1000 to 5000 nM in assay [1] and over 10000 nM in assay [2].

Turning to `N#Cc1cccc(-c2nc(N)nc3c2cnn3Cc2ccc(N)cc2F)c1F` [Compound 203, 3-(6-amino-1-(4-amino-2-fluorobenzyl)-1H-pyrazolo[3,4-d]pyrimidine-4-yl)-2-fluorobenzonitrile], the Ki is under 20 nM in assay [1] and at most 100 nM in assay [2]. For the same compound, in assay [1], the “activity as dual antagonists” value is “potent activity as dual antagonists”.

For `Cc1cc(Cn2ncc3c(-c4cc(C#N)ccn4)nc(N)nc32)ccc1N` [Compound 228, 2-(6-amino-1-(4-amino-3-methylbenzyl)-1H-pyrazolo[3,4-d]pyrimidine-4-yl)isonicotinonitrile], the Ki was 20 to 200 nM in assay [1] and 100 to 1000 nM in assay [2].

`N#Cc1cccc(-c2nc(N)nc3c2cnn3Cc2ccc(N)cc2)n1` [Compound 215, 6-(6-amino-1-(4-aminobenzyl)-1H-pyrazolo[3,4-d]pyrimidine-4-yl)picolinonitrile]: the results for the Ki in assay [1] and in assay [2] were 20 to 200 nM and 100 to 1000 nM, respectively.

For `N#Cc1cccc(-c2nc(N)nc3c2cnn3Cc2c(F)cccc2F)n1` [Compound 231, 6-(6-amino-1-(2,6-difluorobenzyl)-1H-pyrazolo[3,4-d]pyrimidine-4-yl)picolinonitrile], the inhibitory constant (Ki) in assay [1] was under 20 nM; in assay [2] it was 100 to 1000 nM.

For the compound `Cc1cc(Cn2ncc3c(-c4cccc(C#N)n4)nc(N)nc32)ccc1N` [Compound 227, 6-(6-amino-1-(4-amino-3-methylbenzyl)-1H-pyrazolo[3,4-d]pyrimidine-4-yl)picolinonitrile], the Ki in assay [1] was under 20 nM; in assay [2] it was 100 to 1000 nM.

Turning to `N#Cc1cccc(-c2nc(N)nc3c2cnn3Cc2ccc(N)c(C(F)(F)F)c2)c1F` [Compound 211, 3-(6-amino-1-(4-amino-3-(trifluoromethyl)benzyl)-1H-pyrazolo[3,4-d]pyrimidine-4-yl)-2-fluorobenzonitrile], in assay [1], the Ki was under 20 nM; the “activity as dual antagonists” value is recorded as “potent activity as dual antagonists”. Also, in assay [2], the Ki is at most 100 nM.

Turning to `Cc1cc(Cn2ncc3c(-c4cccc(C#N)c4F)nc(N)nc32)ccc1N` [Compound 206, 3-(6-amino-1-(4-amino-3-methylbenzyl)-1H-pyrazolo[3,4-d]pyrimidine-4-yl)-2-fluorobenzonitrile], the Ki in assay [1] was under 20 nM; in assay [2], at most 100 nM. Further, the “activity as dual antagonists” value in assay [1] is “potent activity as dual antagonists”.
